US7663026B2, “Transformation of seaweed utilizing biolistic gene transfer to spores” (Institute of Oceanology Chinese Academy of Sciences, priority 2003, dated 2010)

What was measured:
Undaria = assay: Sensitivity of Undaria to antibiotics/herbicide (selectable reagents); type: in vivo; details: qualitative ranking
Laminaria = assay: Sensitivity of Laminaria to antibiotics/herbicide (selectable reagents); type: in vivo; details: qualitative ranking

## O=C(N[C@H](CO)[C@H](O)c1ccc([N+](=O)[O-])cc1)C(Cl)Cl [chloramphenicol]
Undaria
  sensitivity of the seaweed to the antibiotic or herbicide: sensitive
Laminaria
  sensitivity of the seaweed to the antibiotic or herbicide: sensitive
